Data: US6764833B1, “Mutated Src oncogene composition and methods” (University of South Florida, priority 1999, dated 2004)

Molecular target: T1, pp60c-Src (Homo sapiens, UniProt P12931)
T1 construct: made in house; elsewhere 3Y1 rat fibroblasts are transfected with pcSrc531RI (pcDNA3.1)
Assay: Competitive inhibition of enolase phosphorylation by Src kinase
Assay type: biochemical
Details: 1 μM acid treated enolase; read-out: K50% competitive inhibition of enolase phosphorylation
Description: A library of peptides to be tested as antagonists of pp60 c-Src mutant tyrosine kinase are synthesized according to the procedure disclosed in U.S. Pat. No. 5,532,167 to Cantley, which is incorporated herein by way of reference. Accordingly a peptide Ala-Glu-Glu-Glu-Ile-Tyr-Gly-Glu-Phe-Glu-Ala-Lys-Lys-Lys-Lys is synthesized as an optimal substrate/antagonist for mutant Src tyrosine kinase. The kinetic studies are carried out as follows. Purified mutant kinase is immobilized on protein A beads and kinase reaction is performed in 20 μl of 50 mM Tris pH 7.0 buffer containing 50 mM NaCl, 10 mM MgCl2, 10 μM ATP 5 μCi [gamma-^32P]-ATP (3000 mCi/mmol, NEN) and various dilutions of the peptide. For the experiment measuring the competitive inhibition of c-Src activity by the Src motif-containing peptide, 1 μM (final concentration) acid treated enolase (trans-phosphorylation) is included. After 2.5 minutes incubation, the supernatants are spotted on phosphocellulose paper, washed four times with 75 mM phosphoric acid, and radioactivity counted in a scintillation counter. For phosphorylation of enolase, the reaction is stopped by adding SDS loading buffer and the proteins are resolved on 10% SDS-PAGE gels. The Km and Vmax are calculated using a standard computer software. The peptide is a good substrate for pp60c-Src, with Km of 2 μM and Vmax of 0.9 μM/mg/min. […]

T1 sequence (P12931 2-530): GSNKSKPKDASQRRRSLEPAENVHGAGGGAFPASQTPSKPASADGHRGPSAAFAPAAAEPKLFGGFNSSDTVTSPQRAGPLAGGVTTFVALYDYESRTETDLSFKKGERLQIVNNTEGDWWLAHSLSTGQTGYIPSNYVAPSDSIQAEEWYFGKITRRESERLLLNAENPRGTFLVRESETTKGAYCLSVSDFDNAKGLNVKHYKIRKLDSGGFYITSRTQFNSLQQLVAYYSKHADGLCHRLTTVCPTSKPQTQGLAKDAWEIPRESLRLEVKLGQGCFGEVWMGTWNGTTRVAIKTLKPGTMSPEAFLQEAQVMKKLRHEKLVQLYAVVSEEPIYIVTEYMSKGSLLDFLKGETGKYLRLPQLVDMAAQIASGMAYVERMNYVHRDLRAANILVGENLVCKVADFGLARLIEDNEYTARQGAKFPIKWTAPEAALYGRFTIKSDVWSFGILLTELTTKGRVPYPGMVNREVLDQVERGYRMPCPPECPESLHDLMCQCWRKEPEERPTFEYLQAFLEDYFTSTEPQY

IC50: 5 µM
Structure (SMILES): CC[C@H](C)[C@H](NC(=O)[C@H](CCC(=O)O)NC(=O)[C@H](CCC(=O)O)NC(=O)[C@H](CCC(=O)O)NC(=O)[C@H](C)N)C(=O)N[C@@H](Cc1ccc(O)cc1)C(=O)NCC(=O)N[C@@H](CCC(=O)O)C(=O)N[C@@H](Cc1ccccc1)C(=O)N[C@@H](CCC(=O)O)C(=O)N[C@@H](C)C(=O)N[C@@H](CCCCN)C(=O)N[C@@H](CCCCN)C(=O)N[C@@H](CCCCN)C(=O)N[C@@H](CCCCN)C(=O)O [Ala-Glu-Glu-Glu-Ile-Tyr-Gly-Glu-Phe-Glu-Ala-Lys-Lys-Lys-Lys]
